{
  "source": "the supplement of paper PMC4862054",
  "key": {"MFM-223 [1]": {"test_system": "MFM-223", "conditions": "72 h", "outline": "(§1)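 Two sequential readouts followed a 72 h incubation of breast cancer cell lines with compound at 5 concentrations in 10-fold steps over a compound-specific 10,000-fold range: CellTox Green fluorescence (485/520 nm) for cell death, then CellTiter-Glo luminescence, after 10 min at room temperature, for viability. Each plate was normalised to 0.1 % DMSO and a positive kill control. Dose-response curves were fitted for EC50, censored at the top concentration.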"}, "HDQ-P1 [2]": {"test_system": "HDQ-P1", "conditions": "72 h", "outline": "as §1"}, "HCC1599 [3]": {"test_system": "HCC1599", "conditions": "72 h", "outline": "as §1"}, "CAL-148 [4]": {"test_system": "CAL-148", "conditions": "72 h", "outline": "as §1"}, "CAL-85-1 [5]": {"test_system": "CAL-85-1", "conditions": "72 h", "outline": "(§2)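 Breast cancer cell lines in 20 µl suspension were seeded onto 384-well plates pre-loaded with compound dissolved in 5 µl medium, then incubated 72 h. For viability, 2.5 µl CellTiter-Blue was added for 2 h at 37 °C and fluorescence read at 560/590 nm. Each plate was normalised to vehicle and a positive kill control and checked by Z'-factor. EC50 comes from the fitted percent-inhibition dose-response curve, censored at the highest concentration; rows with zero drug sensitivity score were dropped.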"}, "HDQ-P1 [6]": {"test_system": "HDQ-P1", "conditions": "72 h", "outline": "as §2", "remark": "listed apart in the source"}, "MDA-MB-453 [7]": {"test_system": "MDA-MB-453", "test": "normalised viability (% of control), CellTiter-Blue; higher = more viable cells (about 100 = DMSO control)", "conditions": "30 nM; incubation time: 72 h", "outline": "(§3)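 Vehicle (100) and a positive kill control (0) anchored the normalisation of each plate, and Z'-factor was used for quality control. Breast cancer cell lines in 20 µl suspension were incubated 72 h over compound in 5 µl medium in 384-well plates, followed by CellTiter-Blue at 560/590 nm. The value is normalised viability at a single listed concentration of the series.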"}, "BT-474 [8]": {"test_system": "BT-474", "test": "normalised viability (% of control), CellTiter-Blue; higher = more viable cells (about 100 = DMSO control)", "conditions": "1000 nM; incubation time: 72 h", "outline": "as §3"}, "HDQ-P1 [9]": {"test_system": "HDQ-P1", "test": "normalised viability (% of control), CellTiter-Blue; higher = more viable cells (about 100 = DMSO control)", "conditions": "30 nM; incubation time: 72 h", "outline": "as §3"}, "HCC1599 [10]": {"test_system": "HCC1599", "test": "normalised viability (% of control), CellTiter-Blue; higher = more viable cells (about 100 = DMSO control)", "conditions": "1000 nM; incubation time: 72 h", "outline": "as §3"}, "MDA-MB-468 [11]": {"test_system": "MDA-MB-468", "test": "normalised viability (% of control), CellTiter-Blue; higher = more viable cells (about 100 = DMSO control)", "conditions": "1000 nM; incubation time: 72 h", "outline": "as §3"}, "CAL-148 [12]": {"test_system": "CAL-148", "test": "normalised viability (% of control), CellTiter-Blue; higher = more viable cells (about 100 = DMSO control)", "conditions": "30 nM; incubation time: 72 h", "outline": "as §3"}, "MFM-223 [13]": {"test_system": "MFM-223", "conditions": "72 h", "method": "(§4)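 Drug sensitivity and resistance testing (DSRT) of breast cancer cell lines in 384-well plates, 5 concentrations in 10-fold dilutions over a compound-specific 10,000-fold range. After 72 h, cytotoxicity was read by CellTox Green fluorescence and viability by CellTiter-Glo luminescence (multiplexed), normalised to DMSO and benzethonium chloride controls. EC50 is the inflection point of the fitted dose-response curve (bottom asymptote free, so it can be relative for partial curves) and is censored at the highest tested concentration. Rows with DSS 0 (no meaningful response) were excluded.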", "remark": "listed apart in the source"}, "BT-549 [14]": {"test_system": "BT-549", "conditions": "72 h", "method": "as §4"}, "MDA-MB-453 [15]": {"test_system": "MDA-MB-453", "conditions": "72 h", "method": "as §4"}, "MDA-MB-231 [16]": {"test_system": "MDA-MB-231", "conditions": "72 h", "method": "as §4"}, "MCF-10A": {"test_system": "MCF-10A", "conditions": "72 h", "method": "as §4"}, "CAL-85-1 [17]": {"test_system": "CAL-85-1", "conditions": "72 h", "method": "as §4", "remark": "listed apart in the source"}, "CAL-51": {"test_system": "CAL-51", "conditions": "72 h", "method": "as §4"}, "BT-474 [18]": {"test_system": "BT-474", "conditions": "72 h", "method": "as §4"}, "HCC1937 [19]": {"test_system": "HCC1937", "conditions": "72 h", "method": "as §4"}, "MDA-MB-436 [20]": {"test_system": "MDA-MB-436", "conditions": "72 h", "method": "as §4"}, "HDQ-P1 [21]": {"test_system": "HDQ-P1", "conditions": "72 h", "method": "as §4", "remark": "listed apart in the source"}, "MDA-MB-468 [22]": {"test_system": "MDA-MB-468", "conditions": "72 h", "method": "as §4"}, "MFM-223 [23]": {"test_system": "MFM-223", "conditions": "72 h", "outline": "as §2", "remark": "listed apart in the source"}, "BT-549 [24]": {"test_system": "BT-549", "conditions": "72 h", "outline": "as §2", "remark": "listed apart in the source"}, "CAL-120": {"test_system": "CAL-120", "conditions": "72 h", "outline": "as §2"}, "MDA-MB-231 [25]": {"test_system": "MDA-MB-231", "conditions": "72 h", "outline": "as §2", "remark": "listed apart in the source"}, "SK-BR-3": {"test_system": "SK-BR-3", "conditions": "72 h", "outline": "as §2"}, "BT-474 [26]": {"test_system": "BT-474", "conditions": "72 h", "outline": "as §2", "remark": "listed apart in the source"}, "Hs578T": {"test_system": "Hs578T", "conditions": "72 h", "outline": "as §2"}, "HCC1937 [27]": {"test_system": "HCC1937", "conditions": "72 h", "outline": "as §2", "remark": "listed apart in the source"}, "MDA-MB-436 [28]": {"test_system": "MDA-MB-436", "conditions": "72 h", "outline": "as §2", "remark": "listed apart in the source"}, "MDA-MB-468 [29]": {"test_system": "MDA-MB-468", "conditions": "72 h", "outline": "as §2", "remark": "listed apart in the source"}},
  "data": [
    {"smiles": "CCCCCCCCc1ccc(CCC(N)(CO)CO)cc1", "note": "[Fingolimod]", "values": [
      {"measurement": "EC50, CellTiter-Glo", "setting": "MFM-223 [1]", "value": 6.92, "unit": "µM"},
      {"measurement": "EC50, CellTiter-Glo", "setting": "HDQ-P1 [2]", "value": 6.87, "unit": "µM"},
      {"measurement": "EC50, CellTiter-Glo", "setting": "HCC1599 [3]", "value": 9.54, "unit": "µM"},
      {"measurement": "EC50, CellTiter-Glo", "setting": "CAL-148 [4]", "value": 9.19, "unit": "µM"},
      {"measurement": "EC50, CellTiter-Blue viability", "setting": "CAL-85-1 [5]", "value": 5.29, "unit": "µM"},
      {"measurement": "EC50, CellTiter-Blue viability", "setting": "HDQ-P1 [6]", "value": 5.35, "unit": "µM"},
      {"measurement": "normalised viability", "setting": "MDA-MB-453 [7]", "value": 100, "unit": "%"},
      {"measurement": "normalised viability", "setting": "BT-474 [8]", "value": 113, "unit": "%"},
      {"measurement": "normalised viability", "setting": "HDQ-P1 [9]", "value": 126, "unit": "%"},
      {"measurement": "normalised viability", "setting": "HCC1599 [10]", "value": 113, "unit": "%"},
      {"measurement": "normalised viability", "setting": "MDA-MB-468 [11]", "value": 105, "unit": "%"},
      {"measurement": "normalised viability", "setting": "CAL-148 [12]", "value": 84, "unit": "%"},
      {"measurement": "EC50, CellTox Green", "setting": "MFM-223 [13]", "value": "> 10", "unit": "µM"},
      {"measurement": "EC50, CellTox Green", "setting": "BT-549 [14]", "value": 8.7, "unit": "µM"},
      {"measurement": "EC50, CellTox Green", "setting": "MDA-MB-453 [15]", "value": 7.63, "unit": "µM"},
      {"measurement": "EC50, CellTox Green", "setting": "MDA-MB-231 [16]", "value": 2.65, "unit": "µM"},
      {"measurement": "EC50, CellTox Green", "setting": "MCF-10A", "value": 1.11, "unit": "µM"},
      {"measurement": "EC50, CellTox Green", "setting": "CAL-85-1 [17]", "value": 2.04, "unit": "µM"},
      {"measurement": "EC50, CellTox Green", "setting": "CAL-51", "value": 7.86, "unit": "µM"},
      {"measurement": "EC50, CellTox Green", "setting": "BT-474 [18]", "value": 3.46, "unit": "µM"},
      {"measurement": "EC50, CellTox Green", "setting": "HCC1937 [19]", "value": 0.32, "unit": "µM"},
      {"measurement": "EC50, CellTox Green", "setting": "MDA-MB-436 [20]", "value": 8.12, "unit": "µM"},
      {"measurement": "EC50, CellTox Green", "setting": "HDQ-P1 [21]", "value": 7.66, "unit": "µM"},
      {"measurement": "EC50, CellTox Green", "setting": "MDA-MB-468 [22]", "value": 2.51, "unit": "µM"},
      {"measurement": "EC50, CellTiter-Blue viability", "setting": "MFM-223 [23]", "value": 4.43, "unit": "µM"},
      {"measurement": "EC50, CellTiter-Blue viability", "setting": "BT-549 [24]", "value": 2.22, "unit": "µM"},
      {"measurement": "EC50, CellTiter-Blue viability", "setting": "CAL-120", "value": 2.38, "unit": "µM"},
      {"measurement": "EC50, CellTiter-Blue viability", "setting": "MDA-MB-231 [25]", "value": 2.14, "unit": "µM"},
      {"measurement": "EC50, CellTiter-Blue viability", "setting": "SK-BR-3", "value": 3.87, "unit": "µM"},
      {"measurement": "EC50, CellTiter-Blue viability", "setting": "BT-474 [26]", "value": 3.94, "unit": "µM"},
      {"measurement": "EC50, CellTiter-Blue viability", "setting": "Hs578T", "value": 3.44, "unit": "µM"},
      {"measurement": "EC50, CellTiter-Blue viability", "setting": "HCC1937 [27]", "value": 2.96, "unit": "µM"},
      {"measurement": "EC50, CellTiter-Blue viability", "setting": "MDA-MB-436 [28]", "value": 1.78, "unit": "µM"},
      {"measurement": "EC50, CellTiter-Blue viability", "setting": "MDA-MB-468 [29]", "value": 3.55, "unit": "µM"}
    ]}
  ]
}
